Like-named read-outs stand apart in the source and are kept apart here.
Key:
G-protein = experiment: Functional [35S]GTPγS binding assay on rat brain membrane homogenates; type: biochemical; settings: rat brain membrane homogenates; for Emax ± S.E.M. (maximal G-protein efficacy): basal activity = 100%; for LogEC50 ± S.E.M. (ligand potency): logarithm of EC50, negative sign printed
Procedure: The experiments were performed by [35S]GTPγS binding assays to control the GDP to GTP exchange of the α-subunit of Gi-protein. […] We examined the opioid receptor binding affinity of 5 in competition binding experiments, using opioid receptor selective radioligands. […]
Functional [35S]GTPγS binding experiments
The functional [35S]GTPγS binding experiments were performed as previously described,5,6 with modifications. Briefly the rat brain membrane homogenates containing ~10 µg/mL protein were incubated at 30 °C for 60 min in Tris-EGTA buffer (pH 7.4) composed of 50 mM Tris-HCl, 1 mM EGTA, 3 mM MgCl2, 100 mM NaCl, containing 20 MBq/0.05 cm3 [35S]GTPγS (0.05 nM) and […]
compound 9 together with excess GDP (30 µM) in a final volume of 1 mL. Total binding was measured in the absence of test compounds, non-specific binding was determined in the presence of 10 µM unlabelled GTPγS. The bound and unbound [35S]GTPγS was separated as described in the […]
competition binding assays section through Whatmann GF/B glass fibers. The radioactivity of the filters was also detected as described above. [35S]GTPγS binding experiments were performed in triplicates and repeated at least three times.
The specific binding of all radiolabeled compounds was calculated by the subtraction of non-specific binding from total binding and was given in percentage. The data was normalized to total specific binding, which was settled 100%, which in case of [35S]GTPγS also represents the basal activity of the G-protein. Experimental data were presented as means ± S.E.M in the function of the applied ligand concentration range in logarithm form. Points were fitted with the professional curve fitting program, GraphPad Prism 5.0 (GraphPad Prism Software Inc., San Diego, CA), using non-linear regression. In the radioligand competition binding assays the ‘One-site competition’, while in [35S]GTPγS binding assays the ‘Sigmoid dose-response’ equation was applied to determine IC50 (unlabeled ligand affinity) and the maximum G-protein efficacy (Emax) and ligand potency (EC50), respectively. For IC50 and EC50 values standard error is only given in their logarithm form by the curve fitting program due to the data representation. In competition binding experiments the Ki value was calculated according to Cheng-Prusoff equation.7 […]
binding assays. In figure B, 5 is indicated again for better comparison. Figures represents the specific binding of [35S]GTPγS in percentage in the presence of increasing concentrations (10-10-10-5 M) of the indicated ligands in rat brain membrane homogenates. “Basal” on the x-axis indicates the basal activity of the monitored G-protein, which is measured in the absence of the compounds and also represents the total specific binding of [35S]GTPγS. The level of basal activity was defined as 100% and is presented with a dotted line. Points represent means ± S.E.M. for at least three experiments performed in triplicate.

[1] = biological target: T1, cannabinoid receptors (CBR) (Rattus norvegicus, UniProt P20272); experiment: biochemical; type: binding
T1 construct: a: performed in rat whole brain membrane homogenates; from tissue; host or cells: Wistar rat whole brain membrane homogenate
Procedure: Tris-HCl, EGTA, NaCl, MgCl2 x 6H2O, GDP, the GTP analogue GTPγS, were purchased from Sigma-Aldrich (Budapest, Hungary). Fatty acid free bovine serum albumin (BSA) was purchased from Serva (Heidelberg, Germany). Naloxone was kindly provided by the company Endo Laboratories DuPont de Nemours (Wilmington, DE, USA). HS665 was provided by Schmidhammer’s group (University of Innsbruck, Austria). […]
purchased from Tocris Bioscience (Bristol, UK).
DMSO. All compounds were stored in 1 mM stock solution at -20 °C. The radiolabelled GTP analogue, [35S]GTPγS (specific activity: 1000 Ci/mmol) were purchased from Hartmann Analytic (Braunschweig, Germany). [3H]DAMGO (specific activity: 38.8 Ci/mmol),12 [3H]IleDelt II (specific activity: 19,6 Ci/mmol), [3H]WIN55,212-2 (specific activity: 13,1 Ci/mmol) and [3H]HS665 (specific activity: 36.62 Ci/mmol),3 were radiolabeled by the Laboratory of Chemical Biology group in BRC (Szeged, Hungary).
For membrane homogenate preparations male and female Wistar rats (250-300 g body weight) and male guinea pigs (~700 g body weight, LAL/HA/BR strain) were used. Rats were housed in the local animal house of BRC (Szeged, Hungary), while guinea pigs were housed in LAB-ÁLL Bt.
(Budapest, Hungary). All the animals were kept in a temperature controlled room (21-24 °C) under a 12:12 light and dark cycle and were provided with water and food ad libitum. All housing and experiments were conducted in accordance with the European Communities Council Directives (2010/63/EU) and the Hungarian Act for the Protection of Animals in Research (XXVIII.tv. 32.§).
The total number of animals as well as their suffering was minimized.
Rat and guinea pig brain membrane homogenate preparation for binding assays Rats and guinea pigs were decapitated and their brains were quickly removed. The brains were prepared for membrane preparation as previously described,4 and partly used for binding experiments and partly were further prepared for the [35S]GTPγS binding experiments. Briefly the brains were homogenized, centrifuged in ice-cold 50 mM Tris-HCl (pH 7.4) buffer and incubated at 37 °C for 30 min in a shaking water-bath. After incubation the centrifugation was repeated as described above and the final pellet was suspended in 50 mM Tris-HCl pH 7.4 buffer containing 0.32 M sucrose, and stored at -80 °C. For the [35S]GTPγS binding experiments the final pellet of rat […]
brain membrane homogenate was suspended in ice-cold TEM (Tris-HCl, EGTA, MgCl2) and stored at -80 °C for further use.
Radioligand competition binding experiments
Aliquots of frozen rat brain membrane homogenates were centrifuged (18 000 rpm, 20 min, 4 °C) to remove sucrose and the pellets were suspended in 50 mM Tris-HCl buffer (pH 7.4). Membranes containing 0.4-0.8 mg/mL of protein were incubated in a final volume of 1 mL in the presence of unlabeled 5, 10 and 9 in increasing concentrations (10-11-10-5 M) in the presence of the appropriate radioligand in ~1 nM concentrations at certain temperature and amount of time depending on the radioligand ([3H]DAMGO and [3H]IleDelt II: 35 °C for 45 min; [3H]HS665: 30 °C, 45 min; [3H]WIN55,212-2: 30 °C for 60 min). Experiments performed with [3H]HS665 where incubated […]
more kappa receptors than the rat brain), while the rest of the radioligands were incubated together with rat whole brain membrane homogenates. Additionally, in experiments performed with […]
increasing concentrations (10-11-10-5 M) together with 50 mM Tris/HCl, 2.5 mM EGTA, 5 mM MgCl2 and 0.5 mg/mL fatty acid free BSA (pH 7.4). The level of non-specific binding was […]
binding was determined in the absence of unlabeled compounds. The reaction was terminated by rapid filtration under vacuum (Brandel M24R Cell Harvester), and washed three times with 5 mL ice-cold 50 mM Tris-HCl or 50 mM Tris/HCl, 2.5 mM EGTA, 5 mM MgCl2, 0.5 % BSA (pH 7.4) in case of [3H]WIN55,212-2. The filtration was accomplished through Whatman GF/C ([3H]DAMGO, [3H]IleDelt II and [3H]HS665) or GF/B ([3H]WIN55,212-2) glass fibers. In case of […]

[2] = rat whole brain membrane homogenates, Cheng-Prusoff, read-out: Ki, [3H]WIN55,212 (CBR)
[3] = rat whole brain membrane homogenates, logarithm of IC50, negative sign printed, read-out: logIC50 ± S.E.M., [3H]WIN55,212 (CBR) (converted)

T1 sequence (P20272 whole entry): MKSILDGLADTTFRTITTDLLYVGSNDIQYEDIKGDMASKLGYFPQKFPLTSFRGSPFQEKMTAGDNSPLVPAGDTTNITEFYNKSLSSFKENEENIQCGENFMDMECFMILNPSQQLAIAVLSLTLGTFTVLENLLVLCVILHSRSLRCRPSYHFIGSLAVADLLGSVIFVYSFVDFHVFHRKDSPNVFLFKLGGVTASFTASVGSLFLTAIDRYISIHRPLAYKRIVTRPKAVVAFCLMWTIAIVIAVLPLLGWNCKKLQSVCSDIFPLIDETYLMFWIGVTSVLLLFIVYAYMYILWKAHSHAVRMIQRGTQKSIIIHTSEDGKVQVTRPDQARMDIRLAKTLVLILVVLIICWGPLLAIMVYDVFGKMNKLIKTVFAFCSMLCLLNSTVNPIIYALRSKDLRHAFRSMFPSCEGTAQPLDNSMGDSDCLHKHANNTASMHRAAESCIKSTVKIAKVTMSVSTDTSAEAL

Row | Compound | EC50 (G-protein) [µM] | Emax ± S.E.M. (maximal G-protein efficacy) (G-protein) [%] | LogEC50 ± S.E.M. (ligand potency) (G-protein) | IC50 [1] [µM] | Ki [1] [µM] | Ki [1, 2] [µM] | IC50 [1, 3] [µM]
1 | Cc1c(C(=O)NN2CCCCC2)nn(-c2ccc(Cl)cc2Cl)c1-n1cccc1 [Compound 1] | 1.62 | 26 ± 5.27 | −5.78 ± 0.11 | 0.195 | 0.126 | – | –
2 | Cc1c(C(=O)N2CCN(C(=O)OCc3ccccc3)CC2)nn(-c2ccc(Cl)cc2Cl)c1-n1cccc1 [Compound 2] | 1.54 | 22.95 ± 4.3 | −5.81 ± 0.09 | – | – | 0.71 | 1.1
3 | Cc1c(C(=O)NC2CCN(C(=O)OC(C)(C)C)CC2)nn(-c2ccc(Cl)cc2Cl)c1-n1cccc1 [Compound 3] | 2.69 | 12.78 ± 8.48 | −5.57 ± 0.15 | – | – | 0.193 | 0.295
4 | Cc1c(C(=O)NC2CCCCC2)nn(-c2ccc(Cl)cc2Cl)c1-n1cccc1 [Compound 4] | 1.87 | 55.95 ± 8.44 | −5.72 ± 0.3 | 0.575 | 0.37 | – | –
5 | Cc1c(C(=O)NN2CCCCC2)nn(-c2ccc(Cl)cc2Cl)c1-c1ccc(Cl)cc1 [Rimonabant, reference compound] | 2.2 | 17.5 ± 5.72 | −5.65 ± 0.12 | – | – | – | –

Reference: article PMC6009935 (Journal of Enzyme Inhibition and Medicinal Chemistry, 2017)
